Assay results from patent US8883801B2, “Substituted pyrazolo[1,5-a]pyrimidines as mTOR inhibitors” (Merck Sharp & Dohme Corp., priority 2010, dated 2014).

Tests used:
[1] = system: mTORC1 activity: phosphorylated 4E-BP1 Thr37/46 (p4E-BP1 Thr37/46) in PC3 cells; experiment: mTOR target engagement assay, immunofluorescent cell-based, mTORC1 readout; conditions: Homo sapiens, PC-3, 1.5 h, rated class, 90 min treatment, read-out: P4EBP1 IC50
Experimental: The target engagement of mTOR kinase inhibitors was evaluated using an immunofluorescent cell-based assay. In this assay, inhibition of mTORC1 activity was measured by the reduction in the level of phosphorylated 4E-BP1Thr37/46 (p4E-BP1 Thr37/46), and inhibition of mTORC2 activity was measured by the reduction of phosphorylated AKTSer473 (pAKT S473).
PC3 cells (prostate tumor cell-line that contains a mutation in the tumor suppressor PTEN, that promotes the phosphorylation and activation of AKT and 4E-BP1) were used in the immunofluorescence assay. PC3 cells were seeded on 384 well plates (black clear bottom, Matrix #4332) overnight. PC3 cells were then treated with 40 μl of the serially diluted test compounds (in 5% fetal bovine serum, F12 medium containing 0.25% DMSO) for ninety minutes at 37° C. The test compound solution was removed, and the plates were washed gently two times with 25 μl phosphate buffered saline (PBS). The cells were fixed by adding 25 μl of Prefer reagent (from Anatech LTD, Cat#414, a glyoxal fixative for fixing proteins within a cell) for sixty minutes followed by three washes with PBS. 5% Goat serum in PBS/0.3% Triton was used to block non-specific binding (60 minutes).
The primary antibodies targeting pAKT S473 and p4E-BP1 Thr37/46 were diluted into PBS/0.3% Triton and incubated with the cells overnight at 4° C. The antibodies targeting pAKTS473 (Cat#4085, Cell signaling) and p4E-BP1 Thr37/46 (Cat#2855, Cell signaling) were used at a 1:100 dilution. Plates were washed three times with PBS/0.1% Tween 20 before adding the secondary antibody at a 1:200 dilution. (goat anti-rabbit containing a fluorescent label, Alexa Fluor 488, Cat#A11008, Invitrogen) in PBS/0.3% Triton for 60 minutes.
Finally, the plates were washed three times with PBS/0.1% Tween 20 and the fluorescent intensity was read using an Analyst HT from Molecular Devices. The fluorescent intensity values from the serially diluted compound treatment group were analyzed using the Xlfit 4 program ([…]) (Formula 205: Y=Bottom+(Top-Bottom)/(1+(IC50/X)^Hillslope) to generate the IC50 value. Where Top is the maximum signal without Compound (+DMSO only) and Bottom represents maximum inhibition. Y is the fluorescence at some compound concentration. The control used to determine the fluorescent intensities for 100% pAKT S473 or 100% phosphorylated p4E-BP1 Thr37/46 were measured from untreated wells that contained only DMSO, instead of test compound.

[2] = system: mTORC2 activity: phosphorylated AKT Ser473 (pAKT S473) in PC3 cells; experiment: mTOR target engagement assay, immunofluorescent cell-based, mTORC2 readout; conditions: Homo sapiens, PC-3, 1.5 h, rated class, 90 min treatment
Procedure, shortened: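 Read-out is immunofluorescence intensity, normalized to DMSO-only wells and fitted to a sigmoidal Hill equation for IC50. The mTORC1 arm probes phospho-4E-BP1 Thr37/46 and the mTORC2 arm phospho-AKT Ser473.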

[3] = molecular target: human mTOR enzyme (Homo sapiens, UniProt P42345); experiment: HTRF mTOR enzyme (kinase) assay; assay type: biochemical; conditions: rated class; 5 μM ATP, 0.2 μM GST-S6K; read-out: hMTOR IC50
human mTOR enzyme, sequence (P42345 1360-2549 limits assumed): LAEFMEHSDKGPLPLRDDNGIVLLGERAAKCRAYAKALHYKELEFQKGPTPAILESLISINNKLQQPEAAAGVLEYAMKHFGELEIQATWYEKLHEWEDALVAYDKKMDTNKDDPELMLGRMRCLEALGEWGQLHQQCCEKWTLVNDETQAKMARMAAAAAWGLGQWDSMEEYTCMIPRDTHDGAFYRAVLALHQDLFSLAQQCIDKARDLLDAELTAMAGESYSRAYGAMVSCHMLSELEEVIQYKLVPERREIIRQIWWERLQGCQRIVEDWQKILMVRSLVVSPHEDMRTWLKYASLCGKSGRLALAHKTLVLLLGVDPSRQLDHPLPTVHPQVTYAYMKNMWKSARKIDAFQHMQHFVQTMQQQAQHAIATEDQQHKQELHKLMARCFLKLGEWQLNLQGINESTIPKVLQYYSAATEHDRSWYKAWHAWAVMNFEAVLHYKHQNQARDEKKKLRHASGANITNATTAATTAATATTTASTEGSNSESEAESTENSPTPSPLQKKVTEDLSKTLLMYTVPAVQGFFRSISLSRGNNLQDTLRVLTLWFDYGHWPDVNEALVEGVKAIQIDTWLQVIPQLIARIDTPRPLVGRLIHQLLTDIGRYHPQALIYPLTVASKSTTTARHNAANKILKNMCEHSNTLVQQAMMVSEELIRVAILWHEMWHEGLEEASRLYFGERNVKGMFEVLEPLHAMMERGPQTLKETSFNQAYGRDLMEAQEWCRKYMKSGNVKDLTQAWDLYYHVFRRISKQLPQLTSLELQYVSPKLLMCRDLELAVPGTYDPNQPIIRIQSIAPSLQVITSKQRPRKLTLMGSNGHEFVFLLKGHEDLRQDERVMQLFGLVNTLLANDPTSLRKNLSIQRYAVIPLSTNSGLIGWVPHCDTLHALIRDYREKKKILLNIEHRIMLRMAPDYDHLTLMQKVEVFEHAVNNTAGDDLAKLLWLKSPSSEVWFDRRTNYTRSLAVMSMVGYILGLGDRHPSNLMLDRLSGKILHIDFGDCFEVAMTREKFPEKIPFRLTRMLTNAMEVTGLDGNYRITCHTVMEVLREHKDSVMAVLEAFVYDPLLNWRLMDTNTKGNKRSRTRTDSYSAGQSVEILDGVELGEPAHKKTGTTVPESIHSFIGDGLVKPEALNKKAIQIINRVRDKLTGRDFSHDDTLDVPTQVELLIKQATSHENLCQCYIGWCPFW

SMILES | IC50 [1] | IC50 [2] | IC50 [3]
COCCO[C@]1(C(=O)O)CC[C@@H](c2nc3c(-c4ccc(-c5ccc(OC)c(F)c5)nc4)cnn3c(N)c2Br)CC1 [Compound 68, (1R,4R)-4-(7-amino-6-bromo-3-(6-(3-fluoro-4-methoxyphenyl)-pyridin-3-yl)-pyrazolo[1,5-a]pyrimidin-5-yl)-1-(2-methoxyethoxy) cyclohexanecarboxylic acid] | 2000 to 5000 nM | 2000 to 5000 nM | 1 to 100 nM
COCCO[C@]1(C(=O)NS(C)(=O)=O)CC[C@@H](c2nc3c(-c4cnn(-c5ccccc5)c4)cnn3c(N)c2C(C)=O)CC1 [Compound 70, (1R,4R)-4-(6-acetyl-7-amino-3-(1-phenyl-1H-pyrazol-4-yl)pyrazolo[1,5-a]pyrimidin-5-yl)-1-(2-methoxyethoxy)-N-(methylsulfonyl)cyclohexanecarboxamide] | 100 to 1000 nM | 100 to 1000 nM | 1 to 100 nM
COCCOC1(C(=O)NS(C)(=O)=O)CCC(c2nc3c(-c4cnn(-c5ccccc5)c4)cnn3c(N)c2S(C)(=O)=O)CC1 (stereo not drawn) [Compound 71, 4-(7-amino-6-(methylsulfonyl)-3-(1-phenyl-1H-pyrazol-4-yl)pyrazolo[1,5-a]pyrimidin-5-yl)-1-(2-methoxyethoxy)-N-(methylsulfonyl)cyclohexanecarboxamide] | 1000 to 2000 nM | 1000 to 2000 nM | 1 to 100 nM
COCCO[C@]1(C(=O)NOC)CC[C@@H](c2nc3c(-c4cnn(-c5ccccc5)c4)cnn3c(N)c2S(C)(=O)=O)CC1 [Compound 89, (1R,4R)-4-(7-amino-6-(methylsulfonyl)-3-(1-phenyl-1H-pyrazol-4-yl)pyrazolo[1,5-a]pyrimidin-5-yl)-N-methoxy-1-(2-methoxyethoxy)-cyclohexane-carboxamide] | 1 to 100 nM | 1 to 100 nM | 1 to 100 nM
COCCO[C@]1(C(=O)N(C)C)CC[C@@H](c2nc3c(-c4cnn(-c5ccccc5)c4)cnn3c(N)c2S(C)(=O)=O)CC1 [Compound 91, (1R,4R)-4-(7-amino-6-(methylsulfonyl)-3-(1-phenyl-1H-pyrazol-4-yl)pyrazolo[1,5-a]pyrimidin-5-yl)-1-(2-methoxyethoxy)-N,N-dimethylcyclohexane-carboxamide] | 1000 to 2000 nM | 100 to 1000 nM | 1 to 100 nM
COCCO[C@]1(C(=O)NCCO)CC[C@@H](c2nc3c(-c4cnn(-c5ccccc5)c4)cnn3c(N)c2S(C)(=O)=O)CC1 [Compound 92, (1R,4R)-4-(7-amino-6-(methylsulfonyl)-3-(1-phenyl-1H-pyrazol-4-yl)pyrazolo[1,5-a]pyrimidin-5-yl)-N-(2-hydroxyethyl)-1-(2-methoxyethoxy)-cyclohexane-carboxamide] | 100 to 1000 nM | 1 to 100 nM | 1 to 100 nM
COCCO[C@]1(C(=O)n2ccc(=O)[nH]2)CC[C@@H](c2nc3c(-c4cnn(-c5ccccc5)c4)cnn3c(N)c2S(C)(=O)=O)CC1 [Compound 94, 1-((1R,4R)-4-(7-amino-6-(methylsulfonyl)-3-(1-phenyl-1H-pyrazol-4-yl)pyrazolo[1,5-a]pyrimidin-5-yl)-1-(2-methoxyethoxy)-cyclohexanecarbonyl)-1H-pyrazol-3(2H)-one] | 100 to 1000 nM | 1 to 100 nM | 1 to 100 nM
COCCO[C@]1(C(=O)N2CCC(=O)N2)CC[C@@H](c2nc3c(-c4cnn(-c5ccccc5)c4)cnn3c(N)c2S(C)(=O)=O)CC1 [Compound 95, 1-((1R,4R)-4-(7-amino-6-(methylsulfonyl)-3-(1-phenyl-1H-pyrazol-4-yl)pyrazolo[1,5-a]pyrimidin-5-yl)-1-(2-methoxyethoxy)cyclohexanecarbonyl)-pyrazolidin-3-one] | 100 to 1000 nM | 100 to 1000 nM | 1 to 100 nM
COCCO[C@]1(C(=O)NOCCO)CC[C@@H](c2nc3c(-c4cnn(-c5ccccc5)c4)cnn3c(N)c2S(C)(=O)=O)CC1 [Compound 100] | 1 to 100 nM | 1 to 100 nM | 1 to 100 nM
COCCO[C@]1(C(=O)NO)CC[C@@H](c2nc3c(-c4ccc(-c5ccccc5)nc4)cnn3c(N)c2C(C)=O)CC1 [Compound 102, (1R,4R)-4-(6-acetyl-7-amino-3-(6-phenylpyridin-3-yl)pyrazolo[1,5-a]pyrimidin-5-yl)-N-hydroxy-1-(2-methoxyethoxy)-cyclohexane-carboxamide] | 100 to 1000 nM | 100 to 1000 nM | 1 to 100 nM
COCCO[C@]1(C(=O)NOC)CC[C@@H](c2nc3c(-c4ccc(-c5ccccc5)nc4)cnn3c(N)c2C(C)=O)CC1 [Compound 103, (1R,4R)-4-(6-acetyl-7-amino-3-(6-phenylpyridin-3-yl)pyrazolo[1,5-a]pyrimidin-5-yl)-N-methoxy-1-(2-methoxyethoxy)-cyclohexane-carboxamide] | 100 to 1000 nM | 100 to 1000 nM | 1 to 100 nM

Other lines, results leading:

IC50 [1] | IC50 [2] | IC50 [3] | SMILES
1 to 100 nM | 1 to 100 nM | 1 to 100 nM | COCCO[C@]1(C(=O)O)CC[C@@H](c2nc3c(-c4cnn(-c5ccccc5)c4)cnn3c(N)c2C#N)CC1 [Compound 69, (1R,4R)-4-(7-amino-6-cyano-3-(1-phenyl-1H-pyrazol-4-yl)pyrazolo[1,5-a]pyrimidin-5-yl)-1-(2-methoxyethoxy)cyclohexanecarboxylic acid]
100 to 1000 nM | 100 to 1000 nM | 1 to 100 nM | Nc1c(Br)c([C@H]2CC[C@@](O)(CC(=O)O)CC2)nc2c(-c3ccc(-c4ccccc4)nc3)cnn12 [Compound 76, 2-((1R,4R)-4-(7-amino-6-bromo-3-(6-phenylpyridin-3-yl)pyrazolo[1,5-a]pyrimidin-5-yl)-1-hydroxycyclohexyl)acetic acid]
100 to 1000 nM | 100 to 1000 nM | 1 to 100 nM | Nc1c(Br)c([C@H]2CC[C@](O)(CC(=O)O)CC2)nc2c(-c3cnn(-c4ccccc4)c3)cnn12 [Compound 78, 2-((1S,4S)-4-(7-amino-6-bromo-3-(1-phenyl-1H-pyrazol-4-yl)pyrazolo[1,5-a]pyrimidin-5-yl)-1-hydroxycyclohexyl)-acetic acid]
1 to 100 nM | 1 to 100 nM | 1 to 100 nM | COCCO[C@]1(C(=O)NO)CC[C@@H](c2nc3c(-c4cnn(-c5ccccc5)c4)cnn3c(N)c2S(C)(=O)=O)CC1 [Compound 88, (1R,4R)-4-(7-amino-6-(methylsulfonyl)-3-(1-phenyl-1H-pyrazol-4-yl)pyrazolo[1,5-a]pyrimidin-5-yl)-N-hydroxy-1-(2-methoxyethoxy)cyclohexanecarboxamide]
1000 to 2000 nM | 100 to 1000 nM | 1 to 100 nM | CNC(=O)[C@]1(OCCOC)CC[C@H](c2nc3c(-c4cnn(-c5ccccc5)c4)cnn3c(N)c2S(C)(=O)=O)CC1 [Compound 90, (1R,4R)-4-(7-amino-6-(methylsulfonyl)-3-(1-phenyl-1H-pyrazol-4-yl)pyrazolo[1,5-a]pyrimidin-5-yl)-1-(2-methoxyethoxy)-N-methylcyclohexane-carboxamide]
1000 to 2000 nM | 100 to 1000 nM | 1 to 100 nM | COCCNC(=O)[C@]1(OCCOC)CC[C@H](c2nc3c(-c4cnn(-c5ccccc5)c4)cnn3c(N)c2S(C)(=O)=O)CC1 [Compound 93, (1R,4R)-4-(7-amino-6-(methylsulfonyl)-3-(1-phenyl-1H-pyrazol-4-yl)pyrazolo[1,5-a]pyrimidin-5-yl)-1-(2-methoxyethoxy)-N-(2-methoxyethyl)-cyclohexane-carboxamide]
1000 to 2000 nM | 100 to 1000 nM | 1 to 100 nM | COCCO[C@]1(C(=O)NN2CCOCC2)CC[C@@H](c2nc3c(-c4cnn(-c5ccccc5)c4)cnn3c(N)c2S(C)(=O)=O)CC1 [Compound 96, (1R,4R)-4-(7-amino-6-(methylsulfonyl)-3-(1-phenyl-1H-pyrazol-4-yl)pyrazolo[1,5-a]pyrimidin-5-yl)-1-(2-methoxyethoxy)-N-morpholinocyclohexane-carboxamide]
